Test results as given in US20100105652A1, “PURINES AS CYSTEINE PROTEASE INHIBITORS” (Glaxo Group Limited, priority 2007, published 2010).
Counter-ions that a name gives are not always drawn.

Assays:
[1] = tested on: Plasmodium falciparum parasite; assay: whole cell activity against the Plasmodium falciparum parasite; type: cell-based
From the text: Equation 7 describes the apparent KI for competitive compounds and was substituted into equations 5 and 6 to generate the relevant binding constants from the fitting routine. In addition, the initial and final velocities were fit to equation 3 to further define the binding mechanism and potency. A complete discussion of this kinetic treatment has been fully described (Morrison et al., Adv. Enzymol. Relat. Areas Mol. Biol., 1988, 61, 201). 2) Determination of Whole Cell Activity Against the Plasmodium falciparum Parasite Compounds can be evaluated for whole cell activity against the Plasmodium falciparum parasite according to the procedure described in Sijwali S, and Rosenthal P. J., (2004) Proceedings of the National Academy of Sciences of the United States of America (PNAS) 101(13), 4384-4389 (see in particular “Measurement of Parasite Growth rates and Inhibitor Sensitivity” on page 4385); IC50 values can be calculated as described in Singh A. and Rosenthal P. J., (2001) Antimicrobial Agents and Chemotherapy 45(3), 949-951 (see in particular page 950, first column); synchronised parasites can be prepared as described in Divo A. A. et al., (1985) Protozool. 32, 59-64.

Falcipain-2 = target: T1, Falcipain-2 (Plasmodium falciparum, UniProt Q8I6U4); assay: falcipain-2 enzymatic assay (fluorogenic substrate H-D-VLR-AFC, endpoint); type: biochemical; settings: parasitic recombinant enzyme, pH 5.5, quenched after 60 minutes
T1 sequence (Q8I6U4 244-484): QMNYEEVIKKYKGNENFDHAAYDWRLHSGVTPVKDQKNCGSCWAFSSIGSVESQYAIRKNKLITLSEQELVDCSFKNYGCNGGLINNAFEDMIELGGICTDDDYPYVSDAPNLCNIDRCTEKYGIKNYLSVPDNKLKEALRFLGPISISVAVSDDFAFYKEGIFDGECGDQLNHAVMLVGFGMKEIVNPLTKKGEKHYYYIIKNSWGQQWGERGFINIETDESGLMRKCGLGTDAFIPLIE
Procedure: (§1) 1) Determination of Falcipain-2, Falcipain-3, Vivapain-2, and Cathepsin S Proteolytic Catalytic Activity
(§2) Assays for Falcipain-2, Falcipain-3, and Vivapain-2 are carried out with parasitic recombinant enzymes. Cathepsins S is carried out with human recombinant enzymes. Standard assay conditions for the determination of kinetic constants used a fluorogenic peptide substrate, typically H-D-VLR-AFC (Falcipain-2, Falcipain-3, Vivapain-2) or KQKLR-AMC (Cathepsin S) and are determined in 100 mM sodium acetate, pH 5.5, containing 10 mM DTT and 0.5 mM CHAPS (Falcipain-2, Falcipain-3, Vivapain-2), or 50 mM MES, pH 6.5, containing 0.5 mM CHAPS, 10 mM L-CYS, 5 mM EDTA (Cathepsin S). Stock substrate solutions are prepared at 20 mM in DMSO. The activity assays contained 30 uM substrate (Falcipain-2, Falcipain-3, Vivapain-2), and 30 uM substrate (Cathepsin S). All assays contained 1% DMSO. […] All assays are conducted at ambient temperature as end point assays being quenched after 60 minutes with the exception of Cathepsin S at 90 minutes, with 16.6 uM E-64 in 1% DMSO. Product formation (AFC or AMC) is determined from fluorescence (excitation at 405 nm; emission at 530 nm, AFC, or excitation at 360 nm; emission at 460 nm, AMC) monitored with a LJL Aquest (Molecular Devices) fluorescent plate reader. In the case of kinetic reads (used in mechanism of action studies), the reaction is not quenched but is read in the plate reader every 3 minutes for approximately 90 minutes. In addition, the mechanism of action studies for Falcipain-2 utilize Z-LR-AMC as the substrate. Product formation is determined from the fluorescence of AMC, measured with a LJL Acquest (Molecular Devices) fluorescent plate reader (excitation at 360 nm; emission at 460 nm).
(§3) Potential inhibitors are evaluated using the quenched read (endpoint) method. Assays are carried out in the presence of variable concentrations of test compound. Reactions are initiated by addition of enzyme and substrate to wells containing inhibitor stamped in 100% DMSO. For endpoint assays, the reaction is quenched with the addition of E64. Dose response data is fit to an IC50 curve with preset fitting tools according to equation 1:
(§4) y=a+(b−a)/(1+(10^X/10^C)^d) (1)
(§5) where y is the response at a particular inhibitor concentration x, a is the minimum response value, b is the maximum response value, c is the IC50, and d is the slope of the IC50 curve. Assuming the compound is a competitive inhibitor, the apparent KI can be calculated from IC50, as shown in equation 2: […]

Falcipain-3 = target: T2, Falcipain-3 (Plasmodium falciparum, UniProt Q8IIL0); assay: falcipain-3 enzymatic assay (fluorogenic substrate H-D-VLR-AFC, endpoint); type: biochemical; settings: parasitic recombinant enzyme, pH 5.5, quenched after 60 minutes
T2 sequence (Q8IIL0 243-492): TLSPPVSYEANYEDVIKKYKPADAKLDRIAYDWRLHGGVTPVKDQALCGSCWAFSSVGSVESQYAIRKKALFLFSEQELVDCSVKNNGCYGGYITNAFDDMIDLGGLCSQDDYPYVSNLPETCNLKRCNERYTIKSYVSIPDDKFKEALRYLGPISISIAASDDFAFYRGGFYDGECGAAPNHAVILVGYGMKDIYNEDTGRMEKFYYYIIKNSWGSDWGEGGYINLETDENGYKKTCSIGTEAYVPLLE
Procedure: as §1, §2, §3, §4, §5

IC50 [1] | IC50 (Falcipain-2) | IC50 (Falcipain-3) | Structure (SMILES)
> 1000 nM | 2.5 to 15 nM | 15 to 150 nM | CN(C)CCCCNC(=O)n1cnc2c(N(NC(=O)OC(C)(C)C)C3CCCC3)nc(C#N)nc21 [Example 49, 1,1-dimethylethyl 2-[2-cyano-9-({[4-(dimethylamino)butyl]amino}carbonyl)-9H-purin-6-yl]-2-cyclopentylhydrazinecarboxylate trifluoroacetate]
15 to 150 nM | 2.5 to 15 nM | 15 to 150 nM | CN(C)CCCn1cnc2c(N(NC(=O)c3ccc(CN4CCN(C)CC4)cc3)C3CCCCC3)nc(C#N)nc21 [Example 31, N′-{2-cyano-9-[3-(dimethylamino)propyl]-9H-purin-6-yl}-N′-cyclo hexyl-4-[(4-methyl-1-piperazinyl)methyl]benzohydrazide trifluoroacetate]
2.5 to 15 nM | 2.5 to 15 nM | 15 to 150 nM | CN1CCC(CN2CCN(Cc3ccc(C(=O)NN(c4nc(C#N)nc5c4ncn5C)C4CCCCC4)cc3)CC2)CC1 [Example 9, N′-(2-cyano-9-methyl-9H-purin-6-yl)-N′-cyclohexyl-4-({4-[(1-methyl-4-piperidinyl)methyl]-1-piperazinyl}methyl)-benzohydrazide trifluoroacetate]
15 to 150 nM | 2.5 to 15 nM | 15 to 150 nM | CN(C)CCCn1cnc2c(N(NC(=O)OC(C)(C)C)C3CCCC3)nc(C#N)nc21 [Example 15, 1,1-dimethylethyl 2-{2-cyano-9-[3-(dimethylamino)propyl]-9H-purin-6-yl}-2-cyclopentylhydrazinecarboxylate trifluoroacetate]
15 to 150 nM | 1 to 2.5 nM | 250 to 400 nM | CN(C)CCCn1cnc2c(N(NC(=O)c3ccc(CN4CCN(C)CC4)cc3)C3CCCC3)nc(C#N)nc21 [Example 17, N′-{2-cyano-9-[3-(dimethylamino)propyl]-9H-purin-6-yl}-N′-cyclo pentyl-4-[(4-methyl-1-piperazinyl)methyl]benzohydrazide trifluoroacetate]
15 to 150 nM | 2.5 to 15 nM | 15 to 150 nM | CN(C)CCCn1cnc2c(N(NC(=O)OC(C)(C)C)C3CCOCC3)nc(C#N)nc21 [Example 19, 1,1-dimethylethyl 2-{2-cyano-9-[3-(dimethylamino)propyl]-9H-purin-6-yl}-2-(tetrahydro-2H-pyran-4-yl)hydrazinecarboxylate trifluoroacetate]
250 to 400 nM | 2.5 to 15 nM | 15 to 150 nM | CN(CCn1cnc2c(N(NC(=O)OC(C)(C)C)C3CCCC3)nc(C#N)nc21)C(C)(C)C [Example 43, 1,1-dimethylethyl 2-(2-cyano-9-{2-[(1,1-dimethylethyl)(methyl)amino]ethyl}-9H-purin-6-yl)-2-cyclopentylhydrazinecarboxylate trifluoroacetate]
15 to 150 nM | 2.5 to 15 nM | 15 to 150 nM | CN(C)CCn1cnc2c(N(NC(=O)c3cccc(-c4ccc(CN5CCN(C)CC5)cc4)n3)C3CCCCC3)nc(C#N)nc21 [Example 45, N′-{2-cyano-9-[2-(dimethylamino)ethyl]-9H-purin-6-yl}-N′-cyclohexyl-6-{4-[(4-methyl-1-piperazinyl)methyl]phenyl}-2-pyridinecarbohydrazide trifluoroacetate]
400 to 1000 nM | 2.5 to 15 nM | 15 to 150 nM | CN1CCN(Cc2ccc(C(=O)NN(CC3CCCC3)c3nc(C#N)nc4c3ncn4C)cc2)CC1 [Example 23, N′-(2-cyano-9-methyl-9H-purin-6-yl)-N′-(cyclopentylmethyl)-4-[(4-methyl-1-piperazinyl)methyl]benzohydrazide trifluoroacetate]
400 to 1000 nM | ≤ 1 nM | 2.5 to 15 nM | CN1CCN(C(=O)n2cnc3c(N(NC(=O)OC(C)(C)C)C4CCCC4)nc(C#N)nc32)CC1 [Example 29, 1,1-dimethylethyl 2-{2-cyano-9-[(4-methyl-1-piperazinyl)carbonyl]-9H-purin-6-yl}-2-cyclopentylhydrazinecarboxylate]
2.5 to 15 nM | 2.5 to 15 nM | 150 to 250 nM | CN(C)CCCN(C(=O)OC(C)(C)C)N(CC1CCCC1)c1nc(C#N)nc2c1ncn2CCCN(C)C [Example 16, 1,1-dimethylethyl 2-{2-cyano-9-[3-(dimethylamino)propyl]-9H-purin-6-yl}-2-(cyclopentylmethyl)-1-[3-(dimethylamino)propyl]hydrazinecarboxylate trifluoroacetate]
150 to 250 nM | 2.5 to 15 nM | 250 to 400 nM | CN1CCN(Cc2ccc(C(=O)NN(c3nc(C#N)nc4c3ncn4C)C3CCCC3)cc2)CC1 [Example 47, N′-(2-cyano-9-methyl-9H-purin-6-yl)-N′-cyclopentyl-4-[(4-methyl-1-piperazinyl)methyl]benzohydrazide trifluoroacetate]
250 to 400 nM | 15 to 150 nM | 250 to 400 nM | CC(C)(C)OC(=O)NN(CC1CCCC1)c1nc(C#N)nc2c1ncn2CCN1C(=O)c2ccccc2C1=O [Example 21, 1,1-dimethylethyl-2-{2-cyano-9-[2-(1,3-dioxo-1,3-dihydro-2H-isoindol-2-yl)ethyl]-9H-purin-6-yl}-2-(cyclopentylmethyl)hydrazinecarboxylate]
15 to 150 nM | 2.5 to 15 nM |  | CN1CCCC(CN2CCN(Cc3ccc(C(=O)NN(CC4CCCC4)c4nc(C#N)nc5c4ncn5C)cc3)CC2)C1 (centres unmarked) [Example 3, N′-(2-cyano-9-methyl-9H-purin-6-yl)-N′-(cyclopentylmethyl)-4-({4-[(1-methyl-3-piperidinyl)methyl]-1-piperazinyl}methyl)benzohydrazide trifluoroacetate]
400 to 1000 nM | 15 to 150 nM | 250 to 400 nM | CC(C)CN(NC(=O)c1ccc(CN2CCN(C)CC2)cc1)c1nc(C#N)nc2c1ncn2C [Example 22, N′-(2-cyano-9-methyl-9H-purin-6-yl)-4-[(4-methyl-1-piperazinyl)methyl]-N′-(2-methylpropyl)benzohydrazide]
15 to 150 nM | 2.5 to 15 nM | 15 to 150 nM | Cn1cnc2c(N(NC(=O)c3ccc(CN4CC(N5CCCC5)C4)cc3)C3CCCCC3)nc(C#N)nc21 [Example 11, N′-(2-cyano-9-methyl-9H-purin-6-yl)-N′-cyclohexyl-4-({[3-(1-pyrrolidinyl)-1-azetidinyl]methyl}benzohydrazide trifluoroacetate]
150 to 250 nM | 1 to 2.5 nM | 15 to 150 nM | CN(C)C1CCN(C(=O)n2cnc3c(N(NC(=O)OC(C)(C)C)C4CCCC4)nc(C#N)nc32)CC1 [Example 48, 1,1-dimethylethyl 2-(2-cyano-9-{[4-(dimethylamino)-1-piperidinyl]carbonyl}-9H-purin-6-yl)-2-cyclopentylhydrazinecarboxylate trifluoroacetate]
